Reference: the supplement of paper PMC10307832

Columns and labels:
Test in all cases: relative viability (nuclei count vs DMSO), 5 days (fraction); higher = more cells survive
[1] = compound: Cc1cc(Nc2cc(N3CCN(C)CC3)nc(Sc3ccc(NC(=O)C4CC4)cc3)n2)n[nH]1 [Tozasertib] + CC(=O)c1c(C)c2cnc(Nc3ccc(N4CCNCC4)cn3)nc2n(C2CCCC2)c1=O [Palbociclib] (partner 0.5 µM)
Procedure, shortened: (§1)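 Cells from lung cancer lines were seeded into 1536-well plates and, one day later, dosed by pin tool. Treatments were either a single drug or a fixed dose of an anchor drug with five library-drug doses (not always all listed) in √10 steps. After 5 days, nuclei were stained in a one-step fixation (final 0.05% Triton X-100, 1% formaldehyde, 1 ug/ml Hoechst) and counted on 4× images, and relative viability is the treated-to-vehicle nuclei ratio, as the median of duplicate plates.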

[2] = compound: Cc1cc(Nc2cc(N3CCN(C)CC3)nc(Sc3ccc(NC(=O)C4CC4)cc3)n2)n[nH]1 [Tozasertib] + CC(=O)Nc1cccc(-n2c(=O)n(C3CC3)c(=O)c3c(Nc4ccc(I)cc4F)n(C)c(=O)c(C)c32)c1 [Trametinib] (partner 0.02 µM)
Procedure, shortened: as §1

[3] = compound: Cc1cc(Nc2cc(N3CCN(C)CC3)nc(Sc3ccc(NC(=O)C4CC4)cc3)n2)n[nH]1 [Tozasertib] + Nc1ncn([C@H]2C[C@H](O)[C@@H](CO)O2)c(=O)n1 [Decitabine] (partner 2 µM)
Procedure, shortened: as §1

[4] = compound: Cc1cc(Nc2cc(N3CCN(C)CC3)nc(Sc3ccc(NC(=O)C4CC4)cc3)n2)n[nH]1 [Tozasertib] + C[C@@H](Oc1cc(-c2cnn(C3CCNCC3)c2)cnc1N)c1c(Cl)ccc(F)c1Cl [Crizotinib] (partner 1 µM)
Procedure, shortened: as §1

[5] = compound: Cc1cc(Nc2cc(N3CCN(C)CC3)nc(Sc3ccc(NC(=O)C4CC4)cc3)n2)n[nH]1 [Tozasertib] + O=C(CCCCCCC(=O)Nc1ccccc1)NO [Vorinostat] (partner 1 µM)
Procedure, shortened: as §1

Cell Line	relative viability ([1]; first compound 0.004 µM)	relative viability ([1]; first compound 0.01265 µM)	relative viability ([1]; first compound 0.04 µM)	relative viability ([1]; first compound 0.1265 µM)	relative viability ([2]; first compound 0.004 µM)	relative viability ([2]; first compound 0.01265 µM)	relative viability ([2]; first compound 0.04 µM)	relative viability ([2]; first compound 0.1265 µM)	relative viability ([3]; first compound 0.004 µM)	relative viability ([3]; first compound 0.01265 µM)	relative viability ([3]; first compound 0.04 µM)	relative viability ([3]; first compound 0.1265 µM)	relative viability ([4]; first compound 0.004 µM)	relative viability ([4]; first compound 0.01265 µM)	relative viability ([4]; first compound 0.04 µM)	relative viability ([4]; first compound 0.1265 µM)	relative viability ([5]; first compound 0.01265 µM)	relative viability ([5]; first compound 0.04 µM)	relative viability ([5]; first compound 0.1265 µM)	relative viability ([5]; first compound 0.004 µM)
NCI-H23	0.58	0.518	0.498	0.313	0.356	0.435	0.426	0.223	0.332	0.298	0.276	0.242	0.45	0.459	0.421	0.27	0.693	0.599	0.168	–
NCI-H322M	–	0.515	0.466	0.486	0.498	–	0.573	0.458	0.656	0.661	0.675	0.618	0.891	0.894	0.552	0.584	0.828	0.984	0.588	0.91
NCI-H358	0.14	0.135	0.168	0.0747	0.137	0.0985	0.132	0.0814	0.246	0.196	0.228	0.0965	0.457	0.345	0.261	0.228	0.648	0.361	0.15	0.626
NCI-H441	0.222	0.186	0.213	0.203	0.575	0.393	0.428	0.318	0.226	0.222	0.25	0.261	0.706	0.591	0.828	0.628	0.823	0.845	0.766	0.852
NCI-H460	0.172	0.18	0.196	0.115	0.132	0.129	0.113	0.0704	0.456	0.53	0.493	0.284	0.871	0.874	0.767	0.197	0.769	0.912	0.163	0.83
NCI-H520	0.231	0.228	0.231	0.173	0.673	0.645	0.765	0.243	0.533	0.449	0.467	0.296	1.31	0.742	0.484	0.355	0.747	0.575	0.224	0.814
NCI-H647	0.457	0.398	0.425	0.299	0.459	0.374	0.524	0.32	0.43	0.402	0.322	0.25	1.26	0.979	0.794	0.31	0.377	0.384	0.172	0.729
NCI-H650	0.362	0.288	0.317	0.313	1.06	0.918	0.894	0.823	0.38	0.288	0.334	0.284	0.8	0.73	0.574	0.397	0.4	0.568	0.389	0.448
NCI-H661	0.412	0.406	0.425	0.299	0.564	0.579	0.618	0.336	0.65	0.599	0.569	0.304	1.06	1.05	0.885	0.605	0.806	0.549	0.312	0.912
NCI-H727	0.554	0.573	0.629	0.563	0.358	0.395	0.38	0.37	0.942	–	0.803	0.645	0.683	0.783	0.787	0.402	1.12	1.13	0.82	1.12
NCI-H838	0.238	0.213	0.25	0.171	0.528	0.453	0.657	0.246	0.464	0.458	0.453	0.253	0.939	0.863	0.898	0.706	0.713	0.502	0.235	0.716
NCI-H1355	0.362	0.424	0.457	0.391	0.43	0.436	0.465	0.402	0.357	0.35	0.33	0.357	1.09	1.09	1.09	0.775	0.571	0.669	0.516	0.594
NCI-H1437	0.327	0.267	0.316	0.19	0.562	0.422	0.54	0.294	0.614	0.49	0.584	0.359	0.929	0.839	0.721	0.922	0.792	0.769	0.481	0.851
NCI-H1650	0.328	0.287	0.365	0.207	0.482	0.58	0.624	0.175	0.351	0.364	0.404	0.307	–	1.01	0.919	–	0.462	0.68	0.391	0.517
NCI-H1651	0.54	0.515	0.539	0.519	0.884	0.785	0.907	–	0.608	0.623	0.611	0.437	0.892	0.81	0.906	0.867	0.56	–	0.361	0.603
NCI-H1666	0.644	0.62	0.663	0.612	0.79	0.86	0.863	0.727	0.746	0.68	0.678	0.521	0.974	1.27	0.958	0.578	1.06	1	0.961	0.988
